Measured values from ChEMBL document CHEMBL1140165, “Rotationally constrained 2,4-diamino-5,6-disubstituted pyrimidines: a new class of histamine H4 receptor antagonists with improved druglikeness and in vivo efficacy in pain and inflammation models” (J Med Chem, 2008).
The source made the active and inactive calls. No cut-off for these calls is given here.

What was measured:
Rattus norvegicus [1] = assay: Antinociceptive efficacy in ip dosed rat assessed as inhibition of carrageenan-induced inflammatory pain in paw after 30 mins by hotbox assay relative to control; assay type: functional
Rattus norvegicus [2] = assay: Antinociceptive efficacy in spinal nerve ligated Sprague-Dawley rat assessed as reduction of neuropathic pain in left side paw at 500 umol/kg, ip administered 30 mins before testing relative to control; assay type: functional
Rattus norvegicus [3] = assay: Antinociceptive efficacy in spinal nerve ligated Sprague-Dawley rat assessed as reduction of neuropathic pain in left side paw at 300 umol/kg, ip administered 30 mins before testing relative to control; assay type: functional
Cytochrome P450 2C9 = Cytochrome P450 2C9 (Homo sapiens, UniProt P11712); assay: Inhibition of CYP2C9 upto 10 uM; assay type: ADME
Sequence of Cytochrome P450 2C9 (P11712 whole entry): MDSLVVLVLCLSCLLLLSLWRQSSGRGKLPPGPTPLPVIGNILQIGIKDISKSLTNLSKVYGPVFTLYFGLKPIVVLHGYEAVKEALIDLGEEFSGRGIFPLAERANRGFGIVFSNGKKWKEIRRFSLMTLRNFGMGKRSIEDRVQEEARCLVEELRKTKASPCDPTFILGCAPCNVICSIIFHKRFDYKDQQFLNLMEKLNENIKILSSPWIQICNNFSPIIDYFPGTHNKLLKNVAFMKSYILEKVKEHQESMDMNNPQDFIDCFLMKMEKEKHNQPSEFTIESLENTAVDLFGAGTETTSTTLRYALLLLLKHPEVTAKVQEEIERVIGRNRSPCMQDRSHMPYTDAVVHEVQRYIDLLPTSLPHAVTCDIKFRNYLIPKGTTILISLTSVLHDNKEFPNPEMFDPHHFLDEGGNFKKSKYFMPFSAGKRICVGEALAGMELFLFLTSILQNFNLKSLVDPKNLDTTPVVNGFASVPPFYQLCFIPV

Rattus norvegicus [4] = assay: Antinociceptive efficacy in spinal nerve ligated Sprague-Dawley rat assessed as reduction of neuropathic pain in left side paw at 100 umol/kg, ip administered 30 mins before testing relative to control; assay type: functional
[5] = molecular target: Cannabinoid receptor 1 (Homo sapiens) (UniProt P21554); assay: Binding affinity to CB1 receptor
Sequence of Cannabinoid receptor 1 (Homo sapiens) (P21554 whole entry): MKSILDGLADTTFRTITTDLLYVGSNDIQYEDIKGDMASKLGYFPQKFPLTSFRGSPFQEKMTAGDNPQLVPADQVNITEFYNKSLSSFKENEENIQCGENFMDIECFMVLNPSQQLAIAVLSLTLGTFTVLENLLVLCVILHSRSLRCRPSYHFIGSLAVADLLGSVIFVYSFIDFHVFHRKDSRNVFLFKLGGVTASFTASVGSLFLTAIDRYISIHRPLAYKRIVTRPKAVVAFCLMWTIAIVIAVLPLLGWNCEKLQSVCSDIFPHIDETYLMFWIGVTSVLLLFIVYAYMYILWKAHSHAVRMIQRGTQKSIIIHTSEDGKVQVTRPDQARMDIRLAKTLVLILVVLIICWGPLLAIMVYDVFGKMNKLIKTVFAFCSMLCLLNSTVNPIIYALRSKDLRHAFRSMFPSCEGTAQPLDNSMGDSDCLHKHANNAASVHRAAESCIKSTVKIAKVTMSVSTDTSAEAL

[6] = molecular target: Cannabinoid receptor 2 (Homo sapiens) (UniProt P34972); assay: Binding affinity to CB2 receptor
Sequence of Cannabinoid receptor 2 (Homo sapiens) (P34972 whole entry): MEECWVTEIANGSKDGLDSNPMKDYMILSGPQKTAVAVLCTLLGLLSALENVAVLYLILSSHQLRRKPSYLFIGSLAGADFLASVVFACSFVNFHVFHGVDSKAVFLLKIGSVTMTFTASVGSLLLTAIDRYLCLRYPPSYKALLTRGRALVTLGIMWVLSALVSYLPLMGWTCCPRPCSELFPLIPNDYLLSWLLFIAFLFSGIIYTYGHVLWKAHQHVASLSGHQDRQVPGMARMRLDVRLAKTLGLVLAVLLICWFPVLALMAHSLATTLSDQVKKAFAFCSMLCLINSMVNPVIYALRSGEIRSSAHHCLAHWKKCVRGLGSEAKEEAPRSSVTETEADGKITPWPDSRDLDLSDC

[7] = molecular target: Prostaglandin G/H synthase 1 (Homo sapiens) (UniProt P23219); assay: Binding affinity at COX1
Sequence of Prostaglandin G/H synthase 1 (Homo sapiens) (P23219 whole entry): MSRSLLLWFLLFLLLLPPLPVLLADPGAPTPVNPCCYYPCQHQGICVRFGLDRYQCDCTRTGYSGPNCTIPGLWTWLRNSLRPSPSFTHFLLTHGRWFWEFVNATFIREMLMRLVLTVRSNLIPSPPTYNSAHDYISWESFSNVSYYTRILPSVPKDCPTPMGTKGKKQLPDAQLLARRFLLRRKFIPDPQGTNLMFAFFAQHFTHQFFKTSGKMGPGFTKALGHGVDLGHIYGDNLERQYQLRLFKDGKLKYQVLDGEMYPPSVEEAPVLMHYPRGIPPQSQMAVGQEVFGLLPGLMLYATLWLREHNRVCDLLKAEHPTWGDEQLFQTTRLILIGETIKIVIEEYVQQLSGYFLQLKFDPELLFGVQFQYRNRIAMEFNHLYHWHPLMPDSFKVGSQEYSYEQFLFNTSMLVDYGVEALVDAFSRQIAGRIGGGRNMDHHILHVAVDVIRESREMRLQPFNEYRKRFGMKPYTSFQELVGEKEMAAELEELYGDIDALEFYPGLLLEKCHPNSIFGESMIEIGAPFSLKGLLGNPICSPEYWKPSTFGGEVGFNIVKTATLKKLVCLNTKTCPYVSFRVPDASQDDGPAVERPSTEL

BMMC = assay: Blockade of histamine-induced morphological changes in BALB/c mouse BMMC by flow cytometry; assay type: functional, cell-based
Mus musculus [8] = assay: Antiinflammatory activity against ip dosed BALB/c mouse assessed as inhibition of zymosan-induced peritonitis after 2 hrs pretreated 30 mins before zymosan challenge; assay type: functional
[9] = Selectivity ratio of Ki for human histamine H4 receptor to Ki for histamine H2 receptor
Histamine H4 receptor [10] = molecular target: T1, Histamine H4 receptor (Homo sapiens, UniProt Q9H3N8); conditions: HEK293
T1 sequence (Q9H3N8 whole entry): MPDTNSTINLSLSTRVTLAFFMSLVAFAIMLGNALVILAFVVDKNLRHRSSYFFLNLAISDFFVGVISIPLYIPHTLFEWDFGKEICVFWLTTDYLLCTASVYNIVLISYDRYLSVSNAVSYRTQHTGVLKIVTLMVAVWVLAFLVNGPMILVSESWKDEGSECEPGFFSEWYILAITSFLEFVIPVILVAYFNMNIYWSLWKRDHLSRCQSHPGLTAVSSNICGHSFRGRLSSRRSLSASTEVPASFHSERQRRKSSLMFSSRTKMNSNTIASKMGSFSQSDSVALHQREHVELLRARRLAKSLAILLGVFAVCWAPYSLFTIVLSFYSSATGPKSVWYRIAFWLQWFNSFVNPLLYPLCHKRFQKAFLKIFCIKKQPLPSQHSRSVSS

[11] = Selectivity ratio of Ki for human histamine H4 receptor to Ki for dopamine D2 receptor
Liver microsomes [12] = assay: Metabolic stability in human liver microsomes; assay type: ADME, Microsome
[13] = Metabolic stability in mouse liver microsomes; assay type: ADME, Microsome
[14] = molecular target: T2, Prostaglandin G/H synthase 2 (Homo sapiens) (UniProt P35354); assay: Binding affinity at COX2
T2 sequence (whole entry): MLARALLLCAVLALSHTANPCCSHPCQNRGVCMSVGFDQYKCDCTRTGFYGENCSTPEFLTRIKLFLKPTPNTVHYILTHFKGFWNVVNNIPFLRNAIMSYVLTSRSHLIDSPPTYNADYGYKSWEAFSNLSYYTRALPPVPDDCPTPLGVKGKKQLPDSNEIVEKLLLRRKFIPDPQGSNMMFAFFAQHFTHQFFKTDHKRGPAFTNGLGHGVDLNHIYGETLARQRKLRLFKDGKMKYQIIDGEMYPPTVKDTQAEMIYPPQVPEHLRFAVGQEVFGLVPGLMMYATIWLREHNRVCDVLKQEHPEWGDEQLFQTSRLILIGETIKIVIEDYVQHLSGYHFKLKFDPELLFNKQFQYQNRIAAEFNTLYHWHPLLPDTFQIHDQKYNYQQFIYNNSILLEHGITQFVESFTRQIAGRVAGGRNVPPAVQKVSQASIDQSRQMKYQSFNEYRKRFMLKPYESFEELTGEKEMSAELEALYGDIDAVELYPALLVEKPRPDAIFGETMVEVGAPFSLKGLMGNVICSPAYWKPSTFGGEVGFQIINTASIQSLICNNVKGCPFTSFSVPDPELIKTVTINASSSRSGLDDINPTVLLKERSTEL

[15] = Selectivity ratio of Ki for human histamine H4 receptor to Ki for histamine H1 receptor
[16] = Protein binding in human; assay type: ADME, organism-based; conditions: in vivo, read-out: PB (converted)
Histamine H4 receptor [17] = molecular target: T3, Histamine H4 receptor (Rattus norvegicus, UniProt Q91ZY1); assay: Antagonist activity at rat histamine H4 receptor expressed in HEK293 cells assessed as inhibition of histamine-induced intracellular calcium elevation by FLIPR assay; assay type: functional, cell-based
T3 sequence (Q91ZY1 whole entry): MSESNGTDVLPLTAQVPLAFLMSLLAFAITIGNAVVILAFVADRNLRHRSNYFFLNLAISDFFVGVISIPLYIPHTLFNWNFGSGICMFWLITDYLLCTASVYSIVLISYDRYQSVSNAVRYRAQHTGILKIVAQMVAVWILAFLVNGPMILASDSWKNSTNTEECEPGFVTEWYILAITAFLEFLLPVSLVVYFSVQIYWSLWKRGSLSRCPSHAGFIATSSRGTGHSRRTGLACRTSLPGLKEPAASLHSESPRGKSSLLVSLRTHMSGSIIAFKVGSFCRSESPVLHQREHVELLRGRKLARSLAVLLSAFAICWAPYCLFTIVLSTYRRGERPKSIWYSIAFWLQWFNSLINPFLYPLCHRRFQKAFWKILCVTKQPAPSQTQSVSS

Liver microsomes [18] = assay: Metabolic stability in rat liver microsomes; assay type: ADME, Microsome
Cytochrome P450 3A4 = Cytochrome P450 3A4 (Homo sapiens, UniProt P08684); assay: Inhibition of CYP3A4 upto 10 uM; assay type: ADME
Sequence of Cytochrome P450 3A4 (P08684 whole entry): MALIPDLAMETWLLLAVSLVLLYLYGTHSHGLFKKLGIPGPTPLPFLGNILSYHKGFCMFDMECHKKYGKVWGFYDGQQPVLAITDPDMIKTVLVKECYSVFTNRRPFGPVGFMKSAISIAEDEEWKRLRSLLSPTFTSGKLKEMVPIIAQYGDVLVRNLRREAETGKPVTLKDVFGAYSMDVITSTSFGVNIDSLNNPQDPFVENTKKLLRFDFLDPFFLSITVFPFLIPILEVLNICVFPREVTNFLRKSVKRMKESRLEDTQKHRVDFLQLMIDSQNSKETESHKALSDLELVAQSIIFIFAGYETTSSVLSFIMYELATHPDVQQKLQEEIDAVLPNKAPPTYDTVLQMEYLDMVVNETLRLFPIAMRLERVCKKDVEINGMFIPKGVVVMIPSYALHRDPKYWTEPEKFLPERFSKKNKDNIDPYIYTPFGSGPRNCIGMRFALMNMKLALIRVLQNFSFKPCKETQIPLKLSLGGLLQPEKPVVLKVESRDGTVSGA

Homo sapiens = species on record: Homo sapiens; assay: Selectivity ratio of Ki for human histamine H4 receptor to Ki for human histamine H3 receptor
[19] = Selectivity ratio of Ki for human histamine H4 receptor to Ki for 5HT1D receptor
[20] = molecular target: Delta-type opioid receptor (Homo sapiens) (UniProt P41143); assay: Binding affinity to delta opioid receptor
Sequence of Delta-type opioid receptor (Homo sapiens) (P41143 whole entry): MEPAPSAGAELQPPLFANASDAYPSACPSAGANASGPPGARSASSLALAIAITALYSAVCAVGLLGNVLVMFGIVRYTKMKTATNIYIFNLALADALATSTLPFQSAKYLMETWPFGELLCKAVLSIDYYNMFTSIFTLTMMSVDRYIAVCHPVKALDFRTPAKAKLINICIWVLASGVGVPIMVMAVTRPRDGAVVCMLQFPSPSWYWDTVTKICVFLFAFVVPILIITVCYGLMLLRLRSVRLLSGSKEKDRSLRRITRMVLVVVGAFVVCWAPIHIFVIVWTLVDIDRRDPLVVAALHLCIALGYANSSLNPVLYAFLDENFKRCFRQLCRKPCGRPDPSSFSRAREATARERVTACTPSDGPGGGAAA

[21] = molecular target: Kappa-type opioid receptor (Homo sapiens) (UniProt P41145); assay: Binding affinity to kappa opioid receptor
Sequence of Kappa-type opioid receptor (Homo sapiens) (P41145 whole entry): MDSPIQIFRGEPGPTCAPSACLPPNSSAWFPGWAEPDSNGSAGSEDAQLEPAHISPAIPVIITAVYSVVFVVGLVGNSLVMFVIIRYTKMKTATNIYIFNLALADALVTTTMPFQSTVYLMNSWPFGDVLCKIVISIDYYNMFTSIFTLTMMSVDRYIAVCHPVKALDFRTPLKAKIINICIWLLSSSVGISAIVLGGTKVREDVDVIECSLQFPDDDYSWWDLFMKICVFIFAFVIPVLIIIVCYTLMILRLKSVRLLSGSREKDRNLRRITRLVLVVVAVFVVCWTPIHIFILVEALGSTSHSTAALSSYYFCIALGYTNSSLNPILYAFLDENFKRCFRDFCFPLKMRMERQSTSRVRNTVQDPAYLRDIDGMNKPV

Histamine H4 receptor [22] = molecular target: T4, Histamine H4 receptor (Mus musculus, UniProt Q91ZY2); assay: Antagonist activity at mouse histamine H4 receptor expressed in HEK293 cells assessed as inhibition of histamine-induced intracellular calcium elevation by FLIPR assay; assay type: functional, cell-based
T4 sequence (Q91ZY2 whole entry): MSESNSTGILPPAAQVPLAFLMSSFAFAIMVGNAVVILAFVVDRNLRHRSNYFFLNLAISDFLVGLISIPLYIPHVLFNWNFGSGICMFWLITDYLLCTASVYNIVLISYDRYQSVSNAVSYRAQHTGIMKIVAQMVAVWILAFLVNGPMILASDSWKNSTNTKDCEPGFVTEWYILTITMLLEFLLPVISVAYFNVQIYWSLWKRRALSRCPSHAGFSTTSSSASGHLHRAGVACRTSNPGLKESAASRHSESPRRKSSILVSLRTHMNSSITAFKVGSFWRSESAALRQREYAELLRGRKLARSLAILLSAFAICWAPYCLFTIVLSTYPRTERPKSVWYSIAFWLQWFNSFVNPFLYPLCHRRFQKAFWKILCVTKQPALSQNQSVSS

[23] = Selectivity ratio of Ki for human histamine H4 receptor to Ki for 5HT1A receptor
Rattus norvegicus [24] = assay: Antinociceptive efficacy in rat assessed as inhibition of carrageenan-induced inflammatory pain in paw at 100 umol/kg, ip after 30 mins by hotbox assay relative to control; assay type: functional
[25] = molecular target: Mu-type opioid receptor (Homo sapiens) (UniProt P35372); assay: Binding affinity to mu opioid receptor
Sequence of Mu-type opioid receptor (Homo sapiens) (P35372 whole entry): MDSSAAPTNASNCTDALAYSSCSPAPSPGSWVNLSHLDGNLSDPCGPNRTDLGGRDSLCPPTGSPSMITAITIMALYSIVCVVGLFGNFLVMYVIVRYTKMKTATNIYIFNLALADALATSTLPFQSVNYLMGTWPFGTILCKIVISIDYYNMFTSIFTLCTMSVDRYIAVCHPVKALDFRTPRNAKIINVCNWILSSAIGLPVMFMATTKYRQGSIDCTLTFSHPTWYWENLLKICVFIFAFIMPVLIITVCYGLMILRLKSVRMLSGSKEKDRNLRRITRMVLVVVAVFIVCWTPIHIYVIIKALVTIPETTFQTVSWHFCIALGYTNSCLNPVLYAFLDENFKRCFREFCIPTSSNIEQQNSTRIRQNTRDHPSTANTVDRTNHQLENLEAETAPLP

Histamine H4 receptor [26] = molecular target: T3, Histamine H4 receptor; assay: Displacement of [3H]histamine from rat histamine H4 receptor expressed in HEK293 cells; assay type: cell-based
[27] = Protein binding in rat; assay type: ADME, organism-based; conditions: in vivo, read-out: PB (converted)
[28] = Selectivity ratio of Ki for human histamine H4 receptor to Ki for 5HT2A receptor
Histamine H4 receptor [29] = molecular target: T1, Histamine H4 receptor; assay: Displacement of [3H]histamine from human histamine H4 receptor expressed in HEK293 cells; assay type: cell-based; conditions: read-out: Ki
[30] = Selectivity ratio of Ki for human histamine H4 receptor to Ki for adrenergic alpha1 receptor
Cytochrome P450 2D6 = Cytochrome P450 2D6 (Homo sapiens, UniProt P10635); assay: Inhibition of CYP2D6 upto 10 uM; assay type: ADME
Sequence of Cytochrome P450 2D6 (P10635 whole entry): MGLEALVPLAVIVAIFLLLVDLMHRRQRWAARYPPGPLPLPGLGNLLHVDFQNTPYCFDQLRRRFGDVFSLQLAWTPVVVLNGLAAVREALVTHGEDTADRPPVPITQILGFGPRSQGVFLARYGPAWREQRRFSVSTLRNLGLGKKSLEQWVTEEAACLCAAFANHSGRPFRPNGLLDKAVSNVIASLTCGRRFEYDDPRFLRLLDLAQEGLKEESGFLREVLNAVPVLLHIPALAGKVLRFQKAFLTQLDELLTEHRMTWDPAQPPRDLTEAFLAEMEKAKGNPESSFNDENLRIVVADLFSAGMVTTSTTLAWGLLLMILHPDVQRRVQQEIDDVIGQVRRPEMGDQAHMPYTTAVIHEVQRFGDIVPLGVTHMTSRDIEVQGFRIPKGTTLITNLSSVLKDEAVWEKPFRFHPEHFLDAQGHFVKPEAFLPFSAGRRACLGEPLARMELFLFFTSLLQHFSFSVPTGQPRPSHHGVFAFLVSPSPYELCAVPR

[31] = Ratio of drug level in brain to plasma in rat at 10 mg/kg, iv after 30 mins; assay type: ADME, organism-based; parameters: dose 10 mg/kg, route intravenous
Mus musculus [32] = assay: Inhibition of clobenpropit-induced itching in ip dosed CD1/ICR mouse assessed as blockade of scratching in hind paw for 25 mins pretreated 30 mins before clobenpropit challenge; assay type: functional

SMILES: O=C(O)Cc1ccccc1Nc1c(Cl)cccc1Cl [DICLOFENAC]
- Efficacy (Rattus norvegicus [1]): 91%

SMILES: NCC1(CC(=O)O)CCCCC1 [GABAPENTIN]
- Efficacy (Rattus norvegicus [2]): 62%

SMILES: CNC1CN(c2nc(N)nc3c2CCCc2ccccc2-3)C1
- Efficacy (Rattus norvegicus [3]): 78%
- Activity (Cytochrome P450 2C9): Not Active
- Efficacy (Rattus norvegicus [4]): 36%
- Activity [5]: inactive
- Activity [6]: inactive
- Activity [7]: inactive
- Activity (BMMC): Active
- ED50 (Mus musculus [8]): 17 µmol/kg
- Ratio Ki [9]: > 860
- pKb (Histamine H4 receptor [10]): 8.05
- Ratio Ki [11]: 123
- Stability (Liver microsomes [12]): 20 pmol/min/mg
- Stability [13]: 38.8 pmol/min/mg
- Activity [14]: inactive
- Ratio Ki [15]: > 610
- fraction unbound [16]: 0.52
- EC50 (Histamine H4 receptor [17]): 9.33 nM
- Stability (Liver microsomes [18]): 165 pmol/min/mg
- Activity (Cytochrome P450 3A4): Not Active
- Ratio Ki (Homo sapiens): 93
- Ratio Ki [19]: 310
- Activity [20]: inactive
- Activity [21]: inactive
- EC50 (Histamine H4 receptor [22]): 9.12 nM
- Ratio Ki [23]: 940
- Efficacy (Rattus norvegicus [24]): 39%
- Activity [25]: inactive
- Ki (Histamine H4 receptor [26]): 3.63 nM
- fraction unbound [27]: 0.56
- Ratio Ki [28]: 235
- Ki (Histamine H4 receptor [29]): 11 nM
- Ratio Ki [30]: 215
- Activity (Cytochrome P450 2D6): Not Active
- Kp at 0.5 h [31]: 5.8
- ED50 (Mus musculus [32]): 25 µmol/kg
